Results reported in patent publication US20200131196A1 (Mount Tam Therapeutics, Inc., priority 2017, published 2020).
Each block holds one molecule with its values, some of them ahead of it.

Key:
A101D = experiment: OncoPanel cell proliferation assay, A101D; type: cell-based, human; settings: for EC50: read-out: Cell Count EC50; for GI50: read-out: Cell Count GI50
Experimental: (§1) Cells were grown in RPMI 1640, 10% FBS, 2 mM L-alanyl-L-glutamine, 1 mM Na pyruvate, or a special medium. Cells were seeded into 384-well plates and incubated in a humidified atmosphere of 5% CO2 at 37° C. Compounds were added the day following cell seeding. At the same time, a time zero untreated cell plate was generated. After a 3-day incubation period, cells were fixed and stained to allow fluorescence imaging of nuclei. Compounds (1 mM stock solutions) were serially diluted in half-log steps from the highest test concentration ([…]), and assayed over 10 concentrations with a maximum assay concentration of 0.1% DMSO. Automated fluorescence microscopy was carried out using a Molecular Devices ImageXpress Micro XL high-content imager, and images were collected with a 4× objective. 16-bit TIFF images were acquired and analyzed with MetaXpress 5.1.0.41 software.
(§2) Cell proliferation was measured by the fluorescence intensity of an incorporated nuclear dye. The output is referred to as the relative cell count, where the measured nuclear intensity is transformed to percent of control (POC) using the following formula: […]
(§3) Cellular response parameters were calculated using nonlinear regression to a sigmoidal single-site dose response model:
(§4) EC50 is the test compound concentration at the curve inflection point or half the effective response (parameter C of the fitted curve solution). GI50 is the concentration needed to reduce the observed growth by half (midway between the curve maximum and the time zero value). “Cell Count Activity Area” is an estimate of the integrated area above the curve (Barretina, et al. The Cancer Cell Line Encyclopedia enables predictive modelling of anticancer drug sensitivity. Nature 483: 603-607). […] In rare instances, values <0 or >10 may be observed. […] Curve-fitting, calculations, and report generation was performed using a custom data reduction engine and MathIQ based software (AIM).

SW579 = experiment: OncoPanel cell proliferation assay, SW579; type: cell-based, human; settings: for EC50: read-out: Cell Count EC50; for GI50: read-out: Cell Count GI50
Experimental: as §1, §2, §3, §4

MES-SA = experiment: OncoPanel cell proliferation assay, MES-SA; type: cell-based, human; settings: for GI50: read-out: Cell Count GI50
Experimental: as §1, §2, §3, §4

T24 = experiment: OncoPanel cell proliferation assay, T24; type: cell-based, human; settings: for GI50: T-24, read-out: Cell Count GI50
Experimental: as §1, §2, §3, §4

SK-MEL-28 = experiment: OncoPanel cell proliferation assay, SK-MEL-28; type: cell-based, human; settings: for GI50: read-out: Cell Count GI50; for IC50: read-out: Cell Count IC50
Experimental: as §1, §2, §3, §4

A431 = experiment: OncoPanel cell proliferation assay, A431; type: cell-based, human; settings: for GI50: A-431, read-out: Cell Count GI50; for IC50: A-431, read-out: Cell Count IC50
Experimental: as §1, §2, §3, §4

SK-NEP-1 = experiment: OncoPanel cell proliferation assay, SK-NEP-1; settings: for EC50: SK-NEP-1, read-out: Cell Count EC50; for GI50: SK-NEP-1, read-out: Cell Count GI50; for Cell Count Activity Area: SK-NEP-1
Experimental: (§5) Cells were seeded into 384-well plates and incubated in a humidified atmosphere of 5% CO2 at 37° C. Compounds were added the day following cell seeding. At the same time, a time zero untreated cell plate was generated. After a 3-day incubation period, cells were fixed and stained to allow fluorescence imaging of nuclei. Compounds (1 mM stock solutions) were serially diluted in half-log steps from the highest test concentration (1 micromol), and assayed over 10 concentrations with a maximum assay concentration of 0.1% DMSO. Automated fluorescence microscopy was carried out using a Molecular Devices ImageXpress Micro XL high-content imager, and images were collected with a 4× objective. 16-bit TIFF images were acquired and analyzed with MetaXpress 5.1.0.41 software.

PC-3 = experiment: OncoPanel cell proliferation assay, PC-3; settings: for EC50: PC-3, read-out: Cell Count EC50; for GI50: PC-3, read-out: Cell Count GI50; for Cell Count Activity Area: PC-3
Experimental: as §5

CML-T1 = experiment: OncoPanel cell proliferation assay, CML-T1; type: cell-based, human; settings: for EC50: read-out: Cell Count EC50; for GI50: read-out: Cell Count GI50
Experimental: as §1, §2, §3, §4

SW684 = experiment: OncoPanel cell proliferation assay, SW684; type: cell-based, human; settings: for GI50: read-out: Cell Count GI50
Experimental: as §1, with “Cells” for “Cells were grown in RPMI 1640, 10% FBS, 2 mM L-alanyl-L-glutamine, 1 mM Na pyruvate, or a special medium. Cells”
as §2, §3
GI50 is the concentration needed to reduce the observed growth by half (midway between the curve maximum and the time zero value). […] In rare instances, values <0 or >10 may be observed. […] Curve-fitting, calculations, and report generation was performed using a custom data reduction engine and MathIQ based software (AIM).

786-O = experiment: OncoPanel cell proliferation assay, 786-O; type: cell-based, human; settings: 786-O; for EC50: read-out: Cell Count EC50; for GI50: read-out: Cell Count GI50
Experimental: as §1, §2, §3, §4

CHP-212 = experiment: OncoPanel cell proliferation assay, CHP-212; settings: for Cell Count Activity Area: CHP-212; for GI50: CHP-212, read-out: Cell Count GI50; for IC50: CHP-212, read-out: Cell Count IC50
Experimental: as §5

[1] = Homo sapiens, read-out: Cell Count IC50
[2] = Homo sapiens, read-out: Cell Count EC50

- EC50 (SW579; Homo sapiens): 0.0136 nM
- GI50 (SW579; Homo sapiens): 0.0539 nM
- IC50 (SW579; [1]): > 1000 nM
- EC50 (T24; Homo sapiens, T-24, read-out: Cell Count EC50): 0.0783 nM
- GI50 (T24; Homo sapiens): 0.474 nM
- IC50 (T24; Homo sapiens, T-24, read-out: Cell Count IC50): 2.1 nM
- EC50 (SK-MEL-28; [2]): 0.654 nM
- GI50 (SK-MEL-28; Homo sapiens): 98.7 nM
- IC50 (SK-MEL-28; Homo sapiens): > 1000 nM
- EC50 (A431; Homo sapiens, A-431, read-out: Cell Count EC50): > 1000 nM
- GI50 (A431; Homo sapiens): > 1000 nM
- IC50 (A431; Homo sapiens): > 1000 nM
- EC50 (SK-NEP-1; Homo sapiens): 0.293 nM
- GI50 (SK-NEP-1; Homo sapiens): 0.361 nM
- IC50 (SK-NEP-1; Homo sapiens, SK-NEP-1, read-out: Cell Count IC50): 1.47 nM
- EC50 (PC-3; Homo sapiens): 0.23 nM
- GI50 (PC-3; Homo sapiens): 2.63 nM
- IC50 (PC-3; Homo sapiens, PC-3, read-out: Cell Count IC50): > 1000 nM
- GI50 (SW684; Homo sapiens): 1.97 nM
- IC50 (SW684; [1]): > 1000 nM
- EC50 (786-O; Homo sapiens, 786-0): 0.227 nM
- GI50 (786-O; Homo sapiens, 786-0): 1.13 nM
- IC50 (786-O; Homo sapiens, 786-0, read-out: Cell Count IC50): 3.18 nM
Compound: CO[C@H]1C[C@@H]2CC[C@@H](C)[C@@](O)(O2)C(=O)C(=O)N2CCCC[C@H]2C(=O)O[C@H]([C@H](C)C[C@@H]2CC[C@@H](O)[C@H](OC)C2)CC(=O)[C@H](C)/C=C(\C)[C@@H](O)[C@@H](OC)C(=O)[C@H](C)C[C@H](C)/C=C/C=C/C=C/1C [Rapamycin, reference compound]
- Cell Count Activity Area (A101D): 2.92
- EC50 (A101D; Homo sapiens): 0.184 nM
- GI50 (A101D; Homo sapiens): 0.721 nM
- IC50 (A101D; [1]): > 1000 nM
- Cell Count Activity Area (SW579): 4.77
- Cell Count Activity Area (MES-SA): 5.39
- EC50 (MES-SA; [2]): 0.174 nM
- GI50 (MES-SA; Homo sapiens): 0.294 nM
- IC50 (MES-SA; [1]): 0.415 nM
- Cell Count Activity Area (T24): 4.39
- Cell Count Activity Area (SK-MEL-28): 2.50
- Cell Count Activity Area (A431): 0.28
- Cell Count Activity Area (SK-NEP-1): 4.22
- Cell Count Activity Area (PC-3): 3.57
- Cell Count Activity Area (CML-T1): 4.56
- EC50 (CML-T1; Homo sapiens): 0.189 nM
- GI50 (CML-T1; Homo sapiens): 0.694 nM
- IC50 (CML-T1; [1]): 1.93 nM
- Cell Count Activity Area (SW684): 2.81
- Cell Count Activity Area (786-O): 4.17
- Cell Count Activity Area (CHP-212): 4.13
- EC50 (CHP-212; Homo sapiens, CHP-212, read-out: Cell Count EC50): 0.0376 nM
- GI50 (CHP-212; Homo sapiens): 0.0707 nM
- IC50 (CHP-212; Homo sapiens): > 1000 nM

Compound: CN[C@@H]1C[C@H]2O[C@@](C)([C@@H]1OC)n1c3ccccc3c3c4c(c5c6ccccc6n2c5c31)C(=O)NC4 [Staurosporine, reference compound]
- Cell Count Activity Area (A101D): 4.56
- EC50 (A101D; Homo sapiens): 7.02 nM
- GI50 (A101D; Homo sapiens): 2.65 nM
- Cell Count Activity Area (SW579): 6.09
- EC50 (SW579; Homo sapiens): 0.52 nM
- GI50 (SW579; Homo sapiens): 0.506 nM
- Cell Count Activity Area (MES-SA): 2.80
- GI50 (MES-SA; Homo sapiens): 13 nM
- Cell Count Activity Area (T24): 5.96
- GI50 (T24; Homo sapiens): 0.829 nM
- Cell Count Activity Area (SK-MEL-28): 2.81
- GI50 (SK-MEL-28; Homo sapiens): 32.1 nM
- IC50 (SK-MEL-28; Homo sapiens): 64.3 nM
- Cell Count Activity Area (A431): 5.64
- GI50 (A431; Homo sapiens): 1.03 nM
- IC50 (A431; Homo sapiens): 1.19 nM
- EC50 (SK-NEP-1; Homo sapiens): 48.2 nM
- GI50 (SK-NEP-1; Homo sapiens): 36.5 nM
- Cell Count Activity Area (SK-NEP-1): 2.78
- EC50 (PC-3; Homo sapiens): 0.903 nM
- GI50 (PC-3; Homo sapiens): 1.07 nM
- Cell Count Activity Area (PC-3): 4.67
- Cell Count Activity Area (CML-T1): 4.13
- EC50 (CML-T1; Homo sapiens): 7.06 nM
- GI50 (CML-T1; Homo sapiens): 6.96 nM
- GI50 (SW684; Homo sapiens): 0.95 nM
- Cell Count Activity Area (786-O): 4.87
- EC50 (786-O; Homo sapiens, 786-0): 3.58 nM
- GI50 (786-O; Homo sapiens, 786-0): 3.41 nM
- Cell Count Activity Area (CHP-212): 4.80
- GI50 (CHP-212; Homo sapiens): 2.59 nM
- IC50 (CHP-212; Homo sapiens): 4.78 nM
